Patent US20050065213A1 (priority 2001, published 2005)
Read-outs that look alike come from different tables or passages of the source.

Key:
[1] = system: tubulin; experiment: Colchicine competition assay; assay type: binding
From the text: The compounds have been further tested for their performance in colchicine competition assays, and the results tabulated in Tables 9 to 13.

[2] = system: H460 xenograft; experiment: H460 xenograft mice, X-Rays plus drug; assay type: in vivo; settings: X-Ray plus drug treated group, FIG. 6
From the text: Whilst X-Ray treatment was effective immediately after treatment, fresh tumour growth became evident by 36 days.

[3] = system: K562 cell line; experiment: Cytotoxicity (IC50) assay against the K562 cell line; assay type: cell-based; settings: for activity (in words): cytotoxicity, qualitative statements; for IC50: Homo sapiens, K562 cell line, read-out: IC50 values in the cytotoxicity tests
Protocol: Compounds based on the aurone structure were prepared as conformationally restricted analogues of the chalcones. They were prepared from the appropriate benzofuranone.

[4] = system: tubulin; experiment: Tubulin assembly inhibition assay; assay type: biochemical
[5] = system: H460 human non small cell lung cells; experiment: H460 xenograft in nude mice; assay type: in vivo
[6] = Flow cytometry, percentage of cells in the phases of the cell cycle; assay type: cell-based; settings: for % Cells G2-M: control 12.08; for % Cells S-phase: control 32.87; for % Cells G0-G1: control 55.05
From the text: Tables 14 and 15 show the results of tubulin assembly assays and flow cytometry studies on selected compounds of the present invention.

[7] = system: P388 murine leukaemia cell line; settings: cell line not stated for this statement; cited from earlier work
[8] = tubulin assembly, corrected values scaled by a factor of 5, read-out: IC50 μM (corrected)
[9] = tubulin assembly, original experimental value, read-out: IC50 μM (original)
[10] = tubulin assembly assay, Table 14, read-out: IC(TA)50

Row | IC50 [4, 8] [µM] | IC50 [4, 9] [µM] | SMILES | Colchicine competition, Drug:Protein Ratio 1:1 [1] | Colchicine competition, Drug:Protein Ratio 10:1 [1] | also measured
1 | 12 | 2.4 | COc1cc(C(=O)/C(C)=C/c2cc(F)c(OC)c(F)c2)cc(OC)c1OC [DR6, (E)-3-(3″, 5″-Difluoro-4″-methoxyphenyl)-2-methyl-1-(3′, 4′,5′-trimethoxyphenyl)-2-propen-1-one] | 33 | 25 | –
2 | 2.3 | 0.45 | COc1ccc(C=CC(=O)c2ccc(OC)c(OC)c2OC)cc1O [DR8, (E)-3-(3″-Hydroxy-4″-methoxyphenyl)-1-(2′,3′,4′-trimethoxyphenyl)-2-propen-1-one] | – | – | melting point: 85 to 86 °C
3 | 2.4 | 0.47 | CO/C(=C\c1ccc(OC)c(F)c1)C(=O)c1cc(OC)c(OC)c(OC)c1 [DR14, (Z)-3-(3″-Fluoro-4″-methoxyphenyl)-2-methoxy-1-(3′,4′,5′-trimethoxyphenyl)-2-propen-1-one] | 22 | 8 | melting point: 110 to 112 °C
4 | 8.5 | 1.7 | CO/C(=C\c1cc(F)c(OC)c(F)c1)C(=O)c1cc(OC)c(OC)c(OC)c1 [DR15, (Z)-3-(3″,5″-Difluoro-4″-methoxyphenyl)-2-methoxy-1-(3′,4′,5′-trimethoxyphenyl)-2-propen-1-one] | 59 | 41 | –
5 | > 100 | > 50 | COc1ccc(C=C2Oc3cc(OC)c(OC)c(OC)c3C2=O)cc1O [DR23] | – | – | –
6 | > 100 | > 50 | COc1ccc(C=C2Oc3cc(OC)c(OC)c(OC)c3C2=O)cc1F [DR24] | – | – | –
7 | > 100 | 22 | COc1ccc(/C=C2\Oc3c(cc(OC)c(OC)c3OC)C2=O)cc1O [DR27, 2-[(Z)-(3′-Hydroxy-4′-methoxyphenyl)methylidene]-5,6,7-trimethoxy-1-benzofuran-3-one] | 78 | 59 | melting point: 192 to 193 °C; IC50 [3]: 0.05 µM
8 | > 100 | > 50 | COc1ccc(C=C2Oc3c(cc(OC)c(OC)c3OC)C2=O)cc1F [DR28] | – | – | IC50 [3]: 0.11 µM
9 | > 100 | > 50 | COc1cc2c(c(OC)c1OC)OC(=Cc1ccc(O)c(O)c1)C2=O [DR31] | – | – | –
10 | > 100 | > 50 | COc1ccc(-c2cc(=O)c3c(OC)c(OC)c(OC)cc3o2)cc1O [DR33, 2-(3′-Hydroxy-4′-methoxyphenyl)-5,6,7-trimethoxy-4H-chromen-4-one] | – | – | –
11 | > 100 | 25 | COc1ccc(-c2cc(=O)c3cc(OC)c(OC)c(OC)c3o2)cc1O [DR36, 2-(3′-Hydroxy-4′-methoxyphenyl)-6,7,8-trimethoxy-4H-chromen-4-one] | 100 | 43 | melting point: 199 to 200 °C
12 | 20 | 4 | COc1ccc(C2CC(=O)c3cc(OC)c(OC)c(OC)c32)cc1F (stereo not drawn) [DR59] | 100 | 61 | –
13 | > 100 | > 50 | COc1ccc(C2CC(O)c3cc(OC)c(OC)c(OC)c32)cc1F (stereo not drawn) [DR60] | – | – | –
14 | – | – | COc1ccc(/C=C/C(=O)c2cc(OC)c(OC)c(OC)c2)cc1N [MW65, (E)-3-(3″-Amino-4″-methoxyphenyl)-1-(3′,4′,5′-trimethoxyphenyl)-2-propen-1-one] | – | – | melting point: 90 to 91 °C; % Cells Debris [6]: 14.10%; % Cells G2-M [6]: 18.52%; % Cells S-phase [6]: 33.18%; % Cells G0-G1 [6]: 48.30%
15 | – | – | COc1ccc(/C=C(\C)C(=O)c2cc(OC)c(OC)c(OC)c2)cc1[N+](=O)[O-] [MW68] | – | – | % Cells Debris [6]: 11.27%; % Cells G2-M [6]: 28.29%; % Cells S-phase [6]: 35.36%; % Cells G0-G1 [6]: 36.35%; IC50 [4, 10]: > 10 µM
16 | – | – | COc1ccc(/C=C(\C)C(O)c2cc(OC)c(OC)c(OC)c2)cc1O (stereo not drawn) [MW70] | – | – | % Cells Debris [6]: 15.27%; % Cells G2-M [6]: 23.70%; % Cells S-phase [6]: 32.80%; % Cells G0-G1 [6]: 43.50%; IC50 [4, 10]: > 10 µM
17 | – | – | COc1ccc(CC(C)C(=O)c2cc(OC)c(OC)c(OC)c2)cc1O (stereo not drawn) [MW71] | – | – | % Cells Debris [6]: 19.31%; % Cells G2-M [6]: 28.08%; % Cells S-phase [6]: 36.09%; % Cells G0-G1 [6]: 35.84%; IC50 [4, 10]: 4 µM
18 | – | – | COc1ccc(C2CC(=O)c3cc(OC)c(OC)c(OC)c32)cc1N (stereo not drawn) [MW74, 3-(3′-Amino-4′-methoxyphenyl)-4,5,6-trimethoxy-1-indanone] | – | – | % Cells Debris [6]: 12.72%; % Cells G2-M [6]: 29.10%; % Cells S-phase [6]: 33.76%; % Cells G0-G1 [6]: 37.14%; IC50 [4, 10]: ~10 µM
19 | – | – | COc1ccc(C2CCc3cc(OC)c(OC)c(OC)c32)cc1N (stereo not drawn) [MW82] | – | – | % Cells Debris [6]: 18.58%; % Cells G2-M [6]: 23.34%; % Cells S-phase [6]: 36.26%; % Cells G0-G1 [6]: 40.40%; IC50 [4, 10]: > 10 µM
20 | – | – | COc1ccc(/C=C/C(=O)c2cc(OC)c(OC)c(OC)c2)cc1OP(=O)([O-])[O-].[Na+].[Na+] [SD174a, Disodium 3′-phosphate salt of (E)-1-(3′-Hydroxy-4′-methoxyphenyl)-3-(3″,4″,5″-trimethoxyphenyl)prop-1-en-3-one] | – | – | activity (in words) [3]: potently active
21 | – | – | COc1ccc(/C=C(\C)C(=O)c2cc(OC)c(OC)c(OC)c2)cc1OP(=O)([O-])[O-].[Na+].[Na+] [SD174b, Disodium 3′-phosphate salt of (E)-1-(3′-Hydroxy-4′-methoxyphenyl)-2-methyl-3-(3″,4″,5″-trimethoxyphenyl)prop-1-en-3-one] | – | – | activity (in words) [3]: potently active
22 | – | – | COc1ccc(/C=C/c2cc(OC)c(OC)c(OC)c2)cc1O [trans-combretastatin A-4] | – | – | cell growth inhibition (in words) [7]: μM range

Row | SMILES | IC50 [4, 8] [µM] | IC50 [4, 9] [µM] | Colchicine competition, Drug:Protein Ratio 1:1 [1] | Colchicine competition, Drug:Protein Ratio 10:1 [1] | also measured
23 | COc1ccc(/C=C(\C)C(=O)c2cc(OC)c(OC)c(OC)c2)cc1F [DR5, (E)-3-(3″-Fluoro-4″-methoxyphenyl)-2-methyl-1-(3′,4′,5′-trimethoxyphenyl)-2-propen-1-one] | 3.5 | 0.7 | 14 | 6 | tumour volume / potency with concomitant X-Rays [2]: some initial increase in tumour volume between days 27 and 32, though this was followed by subsequent decrease to a steady baseline at day 34; tumour volume / potency with concomitant X-Rays ([2]; listed as DRA 212): Further improvement in the potency; activity (in words) [3]: most active fluorinated analogue; necrosis in tumour ([5]; 24 hours after treatment with 0.75 MTD): necrosis in H460 cancer cells; adverse side effects on healthy surrounding tissue ([5]; H460 xenograft nude mice): no adverse side effects on healthy surrounding tissue
24 | CO/C(=C\c1ccc(OC)c(O)c1)C(=O)c1cc(OC)c(OC)c(OC)c1 [DR13, (Z)-3-(3″-Hydroxy-4″-methoxyphenyl)-2-methoxy-1-(3′,4′,5′-timethoxyphenyl)-2-propen-1-one] | 2.6 | 0.51 | 12 | 5 | melting point: 120 to 122 °C
